8 compounds from patent US9073855B2, “BCL-2 selective apoptosis-inducing agents for the treatment of cancer and immune diseases” (AbbVie Inc., priority 2008, dated 2015) can be followed below.

The structures appear in SMILES notation.

For one assay, the target named is GST-Bcl-2 (Homo sapiens, UniProt P10415). The assay is described as follows: TR-FRET binding assay, GST-Bcl-2 with F-Bak peptide probe. The note with it: TR-FRET Binding Affinity, GST-Bcl-2, F-Bak peptide probe. The essentials:
(§1)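 Displacement of a fluorescein-labelled Bak peptide from the GST-tagged protein was followed by time-resolved FRET with a terbium anti-GST donor after 3 h incubation at room temperature. Inhibition constants were calculated with Wang's equation.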

For another assay, the target named is GST-Bcl-XL (Homo sapiens, UniProt Q07817). The assay is described as follows: TR-FRET binding assay, GST-Bcl-XL with F-Bak peptide probe. The settings on record: TR-FRET Binding Affinity, GST-Bcl-XL, F-Bak peptide probe. In short, it runs like this:
as §1

The Ki is a dissociation constant, usually derived from enzyme kinetics or from competition with a known ligand. A high value points to a looser hold on the target.

Sequence of GST-Bcl-XL (Q07817 whole entry): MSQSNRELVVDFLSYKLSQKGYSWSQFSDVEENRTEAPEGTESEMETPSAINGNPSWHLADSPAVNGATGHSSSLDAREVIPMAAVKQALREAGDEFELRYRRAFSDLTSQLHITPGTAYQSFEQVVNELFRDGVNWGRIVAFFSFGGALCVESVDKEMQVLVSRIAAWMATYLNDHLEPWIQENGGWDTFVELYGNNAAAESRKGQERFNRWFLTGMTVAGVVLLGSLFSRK
Sequence of GST-Bcl-2 (P10415 whole entry): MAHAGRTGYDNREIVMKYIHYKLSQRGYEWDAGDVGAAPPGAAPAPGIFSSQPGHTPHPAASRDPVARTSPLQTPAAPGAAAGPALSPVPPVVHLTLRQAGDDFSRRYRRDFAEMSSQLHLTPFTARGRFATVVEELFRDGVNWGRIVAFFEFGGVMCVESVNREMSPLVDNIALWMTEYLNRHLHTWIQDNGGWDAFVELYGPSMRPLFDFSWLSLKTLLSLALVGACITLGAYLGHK

On to `O=C(NS(=O)(=O)c1ccc(NCC2CCOCC2)c([N+](=O)[O-])c1)c1ccc(N2CCN(Cc3cc(OCCN4CCOCC4)ccc3-c3ccc(Cl)cc3)CC2)cc1Oc1ccc2[nH]ccc2c1` [Example 127, 4-(4-{[4′-chloro-4-(2-morpholin-4-ylethoxy)-1,1′-biphenyl-2-yl]methyl}piperazin-1-yl)-2-(1H-indol-5-yloxy)-N-({3-nitro-4-[(tetrahydro-2H-pyran-4-ylmethyl)amino]phenyl}sulfonyl)benzamide], for which the figures for the Ki on GST-Bcl-2 and on GST-Bcl-XL were 0.459 nM and greater than 660 nM, respectively.

As to `CN(C)CCNc1ccc(S(=O)(=O)NC(=O)c2ccc(N3CCN(Cc4ccccc4-c4ccc(Cl)cc4)CC3)cc2Oc2ccccc2)cc1[N+](=O)[O-]` [Example 153, 4-{4-[(4′-chloro-1,1′-biphenyl-2-yl)methyl]piperazin-1-yl}-N-[(4-{[2-(dimethylamino)ethyl]amino}-3-nitrophenyl)sulfonyl]-2-phenoxybenzamide], the Ki was determined as 0.265 nM on GST-Bcl-2 and 93 nM on GST-Bcl-XL.

Take `CN(C)CCCCNc1ccc(S(=O)(=O)NC(=O)c2ccc(N3CCN(Cc4ccccc4-c4ccc(Cl)cc4)CC3)cc2Oc2ccccc2)cc1[N+](=O)[O-]` [Example 156, 4-{4-[(4′-chloro-1,1′-biphenyl-2-yl)methyl]piperazin-1-yl}-N-[(4-{[4-(dimethylamino)butyl]amino}-3-nitrophenyl)sulfonyl]-2-phenoxybenzamide]: the Ki on GST-Bcl-2 amounted to 0.116 nM; on GST-Bcl-XL it was 6.16 nM.

For the compound `O=C(NS(=O)(=O)c1ccc(NC2CCN(S(=O)(=O)c3ccccc3)CC2)c([N+](=O)[O-])c1)c1ccc(N2CCN(Cc3ccccc3-c3ccc(Cl)cc3)CC2)cc1Oc1ccccc1` [Example 157, 4-{4-[(4′-chloro-1,1′-biphenyl-2-yl)methyl]piperazin-1-yl}-N-[(3-nitro-4-{[1-(phenylsulfonyl)piperidin-4-yl]amino}phenyl)sulfonyl]-2-phenoxybenzamide], the inhibition constant Ki was 4.45 nM at GST-Bcl-2 and greater than 660 nM on GST-Bcl-XL.

As to `O=C(NS(=O)(=O)c1ccc(NC2CCN(S(=O)(=O)c3cccc4cccnc34)CC2)c([N+](=O)[O-])c1)c1ccc(N2CCN(Cc3ccccc3-c3ccc(Cl)cc3)CC2)cc1Oc1ccccc1` [Example 158, 4-{4-[(4′-chloro-1,1′-biphenyl-2-yl)methyl]piperazin-1-yl}-N-[(3-nitro-4-{[1-(quinolin-8-ylsulfonyl)piperidin-4-yl]amino}phenyl)sulfonyl]-2-phenoxybenzamide], the Ki is 64.8 nM at GST-Bcl-2 and greater than 660 nM on GST-Bcl-XL.

For the compound `CN(C)CC[C@H](Nc1ccc(S(=O)(=O)NC(=O)c2ccc(N3CCN(Cc4ccccc4-c4ccc(Cl)cc4)CC3)cc2Oc2ccccc2)cc1[N+](=O)[O-])c1cccs1` [Example 161, 4-{4-[(4′-chloro-1,1′-biphenyl-2-yl)methyl]piperazin-1-yl}-N-[(4-{[(1S)-3-(dimethylamino)-1-thien-2-ylpropyl]amino}-3-nitrophenyl)sulfonyl]-2-phenoxybenzamide], the Ki is 1.71 nM at GST-Bcl-2 and greater than 660 nM on GST-Bcl-XL.

For the compound `O=C(NS(=O)(=O)c1ccc(NCc2cccs2)c([N+](=O)[O-])c1)c1ccc(N2CCN(Cc3ccccc3-c3ccc(Cl)cc3)CC2)cc1Oc1ccccc1` [Example 162, 4-{4-[(4′-chloro-1,1′-biphenyl-2-yl)methyl]piperazin-1-yl}-N-({3-nitro-4-[(thien-2-ylmethyl)amino]phenyl}sulfonyl)-2-phenoxybenzamide], the Ki on GST-Bcl-2 worked out at 1.35 nM; on GST-Bcl-XL, 167 nM.

Turning to `O=C(NS(=O)(=O)c1ccc(NCC2CCOCC2)c(S(=O)(=O)C(F)(F)F)c1)c1ccc(N2CCN(Cc3ccccc3-c3ccc(Cl)cc3)CC2)cc1Oc1ccccc1` [Example 163, 4-{4-[(4′-chloro-1,1′-biphenyl-2-yl)methyl]piperazin-1-yl}-2-phenoxy-N-({4-[(tetrahydro-2H-pyran-4-ylmethyl)amino]-3-[(trifluoromethyl)sulfonyl]phenyl}sulfonyl)benzamide], the Ki is 5.62 nM at GST-Bcl-2 and greater than 660 nM at GST-Bcl-XL.
